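1) Cells in 96-well plates. 2) Compound, 48 h, 5 concentrations. 3) Linear interpolation between surrounding doses. 4) Unreached endpoint = highest concentration. GI50 marks 50% less growth. TGI: concentration producing complete growth inhibition.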
What was measured:
Assay in all cases: NCI tumour cell line growth inhibition, 48 h
NCI-H226 lung = system: NCI-H226 lung
HOP-62 NSCLC = system: HOP-62 NSCLC
SK-MEL-2 melanoma = system: SK-MEL-2 melanoma
SK-MEL-5 melanoma = system: SK-MEL-5 melanoma
OVCAR-4 ovarian = system: OVCAR-4 ovarian
SR leukemia = system: SR leukemia
OVCAR-3 ovarian = system: OVCAR-3 ovarian
BT-549 breast = system: BT-549 breast
M14 melanoma = system: M14 melanoma
HCT-116 colon = system: HCT-116 colon
UACC-62 melanoma = system: UACC-62 melanoma
SNB-19 CNS = system: SNB-19 CNS
T-47D breast = system: T-47D breast
EKVX NSCLC = system: EKVX NSCLC
PC-3 prostate = system: PC-3 prostate
SNB-75 CNS = system: SNB-75 CNS
SF-539 CNS = system: SF-539 CNS
MOLT-4 leukemia = system: MOLT-4 leukemia
HS 578T breast = system: HS 578T breast
KM12 colon = system: KM12 colon
U251 CNS = system: U251 CNS
HL-60(TB) leukemia = system: HL-60(TB) leukemia
A549 NSCLC = system: A549 NSCLC
SK-OV-3 ovarian = system: SK-OV-3 ovarian
A498 renal = system: A498 renal
SF-295 CNS = system: SF-295 CNS
UO-31 renal = system: UO-31 renal
K-562 leukemia = system: K-562 leukemia
UACC-257 melanoma = system: UACC-257 melanoma
NCI-H522 lung = system: NCI-H522 lung
CAKI-1 renal = system: CAKI-1 renal
HCT-15 colon = system: HCT-15 colon
SN12C renal = system: SN12C renal
ACHN renal = system: ACHN renal
COLO 205 colon = system: COLO 205 colon
HCC-2998 colon = system: HCC-2998 colon
MDA-MB-231 breast = system: MDA-MB-231 breast
SW-620 colon = system: SW-620 colon
RPMI-8226 leukemia = system: RPMI-8226 leukemia
NCI-H460 lung = system: NCI-H460 lung
SF-268 CNS = system: SF-268 CNS
RXF 393 renal = system: RXF 393 renal
TK-10 renal = system: TK-10 renal
SK-MEL-28 melanoma = system: SK-MEL-28 melanoma
MALME-3M melanoma = system: MALME-3M melanoma
MDA-MB-435 = system: MDA-MB-435
NCI-H23 lung = system: NCI-H23 lung
OVCAR-8 ovarian = system: OVCAR-8 ovarian
LOX IMVI melanoma = system: LOX IMVI melanoma
MCF7 breast = system: MCF7 breast
CCRF-CEM leukemia = system: CCRF-CEM leukemia
HT29 colon = system: HT29 colon
786-0 renal = system: 786-0 renal
NCI/ADR-RES ovarian = system: NCI/ADR-RES ovarian
DU-145 prostate = system: DU-145 prostate
OVCAR-5 ovarian = system: OVCAR-5 ovarian
MDA-MB-468 breast = system: MDA-MB-468 breast
HOP-92 NSCLC = system: HOP-92 NSCLC
IGROV1 ovarian = system: IGROV1 ovarian

## CSc1nc(-c2cccc(C)c2)c2cc(-c3ccccc3)n(C)c2n1
NCI-H226 lung
  GI50: 12.8 µM
  TGI: 50 µM
HOP-62 NSCLC
  GI50: 8.77 µM
  TGI: 48.9 µM
SK-MEL-2 melanoma
  GI50: 3.62 µM
  TGI: 17.5 µM
SK-MEL-5 melanoma
  GI50: 3.59 µM
  TGI: 12.8 µM
OVCAR-4 ovarian
  GI50: 20.5 µM
  TGI: > 100 µM
SR leukemia
  GI50: 3.17 µM
  TGI: > 100 µM
OVCAR-3 ovarian
  GI50: 4.31 µM
  TGI: 30.7 µM
BT-549 breast
  GI50: 7.11 µM
  TGI: 33.5 µM
M14 melanoma
  GI50: 4.56 µM
  TGI: 51.4 µM
HCT-116 colon
  GI50: 4.17 µM
  TGI: 21.7 µM
UACC-62 melanoma
  GI50: 3.99 µM
  TGI: 17.9 µM
SNB-19 CNS
  GI50: 14.6 µM
  TGI: 93.6 µM
T-47D breast
  GI50: 4.59 µM
  TGI: 41.3 µM
EKVX NSCLC
  GI50: 4.88 µM
  TGI: 39.1 µM
PC-3 prostate
  GI50: 7.9 µM
  TGI: > 100 µM
SNB-75 CNS
  GI50: 3.17 µM
  TGI: 27.4 µM
SF-539 CNS
  GI50: 6.35 µM
  TGI: 21.8 µM
MOLT-4 leukemia
  GI50: 4.47 µM
  TGI: 37.7 µM
HS 578T breast
  GI50: 7 µM
  TGI: 78.1 µM
KM12 colon
  GI50: 5.41 µM
  TGI: 64.7 µM
U251 CNS
  GI50: 4.65 µM
  TGI: 33.8 µM
HL-60(TB) leukemia
  GI50: 3.54 µM
  TGI: 35.4 µM
A549 NSCLC
  GI50: 7.01 µM
  TGI: > 100 µM
SK-OV-3 ovarian
  GI50: 11.2 µM
  TGI: 52.1 µM
A498 renal
  GI50: 27 µM
  TGI: 94.9 µM
SF-295 CNS
  GI50: 5.06 µM
  TGI: 18.2 µM
UO-31 renal
  GI50: 6.78 µM
  TGI: 67 µM
K-562 leukemia
  GI50: 3.13 µM
  TGI: > 100 µM
UACC-257 melanoma
  GI50: 16.7 µM
  TGI: 50.4 µM
NCI-H522 lung
  GI50: 3.41 µM
  TGI: 17.2 µM
CAKI-1 renal
  GI50: 5.08 µM
  TGI: > 100 µM
HCT-15 colon
  GI50: 4.9 µM
  TGI: 24.8 µM
SN12C renal
  GI50: 10.7 µM
  TGI: 44.7 µM
ACHN renal
  GI50: 12.9 µM
  TGI: 75.1 µM
COLO 205 colon
  GI50: 7.28 µM
  TGI: 26.9 µM
HCC-2998 colon
  GI50: 13.9 µM
  TGI: 60.8 µM
MDA-MB-231 breast
  GI50: 7.42 µM
  TGI: 30.2 µM
SW-620 colon
  GI50: 4.87 µM
  TGI: > 100 µM
RPMI-8226 leukemia
  GI50: 4.82 µM
  TGI: 37.8 µM
NCI-H460 lung
  GI50: 3.98 µM
  TGI: 19.1 µM
SF-268 CNS
  GI50: 11.2 µM
  TGI: 51.1 µM
RXF 393 renal
  GI50: 7.91 µM
  TGI: 47 µM
TK-10 renal
  GI50: 28.8 µM
  TGI: 91.9 µM
SK-MEL-28 melanoma
  GI50: 12.2 µM
  TGI: 97.7 µM
MALME-3M melanoma
  GI50: 9.16 µM
  TGI: 38.2 µM
MDA-MB-435
  GI50: 2.86 µM
  TGI: 8.45 µM
NCI-H23 lung
  GI50: 12.2 µM
  TGI: 68 µM
OVCAR-8 ovarian
  GI50: 16.3 µM
  TGI: > 100 µM
LOX IMVI melanoma
  GI50: 5.44 µM
  TGI: 19.4 µM
MCF7 breast
  GI50: 5.88 µM
  TGI: 41.8 µM
CCRF-CEM leukemia
  GI50: 4 µM
  TGI: 36.1 µM
HT29 colon
  GI50: 3.98 µM
  TGI: 25.4 µM
786-0 renal
  GI50: 14.5 µM
  TGI: 47.8 µM
NCI/ADR-RES ovarian
  GI50: 3.58 µM
  TGI: 30.9 µM
DU-145 prostate
  GI50: 18.1 µM
  TGI: > 100 µM
OVCAR-5 ovarian
  GI50: 18.6 µM
  TGI: > 100 µM
MDA-MB-468 breast
  GI50: 3.08 µM
  TGI: 15.6 µM
HOP-92 NSCLC
  GI50: 3.92 µM
  TGI: 30.7 µM
IGROV1 ovarian
  GI50: 6.43 µM
  TGI: > 100 µM
